Reference: patent US20070275425A1, “Device and method for analysis of a metabolic malady” (priority 2004, published 2007)

Experiments:
[1] = tested on: lipid bodies in neutrophil cells of ZDF rats; assay: Lipid bodies per neutrophil cell of leukocyte samples (SEM) from obese ZDF rats treated with anti-diabetic drug; assay type: in vivo, rat; conditions: 10 mg/kg oral gavage five times a week for 20 days
Description: (§1) Whole blood samples were obtained from a group of four obese ZDF rats treated with an anti-diabetic drug, Rosiglitazone (10 mg/kg), administered by oral gavage five times a week for 20 days and a group of four untreated obese ZDF rats induced with a saline solution administered by oral gavage five times a week for 20 days.
A whole blood sample was collected in tubes including a solution of heparin. One hour after drawing the whole blood sample from each rat, approximately 75 microliters of whole blood was mixed with 600 microliters of ddH2O and incubated at a temperature of approximately 25° C. for approximately 30 seconds. Then 75 microliters of 10×PBS was added.
Following incubation, the sample was centrifuged at a speed of approximately 1200 rpm for approximately five minutes. Thereafter, resulting supernatant was removed from the leukocyte sample. Approximately 400 microliters of PBS including 0.89 mM calcium and 0.49 mM magnesium was added to the leukocyte sample. The sample was centrifuged again at a speed of approximately 1200 rpm for approximately five minutes. Thereafter, resulting supernatant was removed from the leukocyte sample. Approximately 400 microliters of PBS including 0.89 mM calcium and 0.49 mM magnesium was added to the leukocyte sample. […]

[2] = Fasting glucose test of treated ZDF rats; assay type: in vivo, rat; conditions: obese ZDF rats, 10 mg/kg oral gavage five times a week for 20 days; untreated group 242.25 (SD 14.58); treated SD 14.29
Description: as §1
The values of the average number of lipid bodies and average lipid body area correspond to results of a fasting glucose test of the untreated and treated subjects.

## CN(CCOc1ccc(CC2SC(=O)NC2=O)cc1)c1ccccn1 (stereo not drawn) [Rosiglitazone]
[1]; untreated group 1.04 (SD 0.1), treated SD 0.06
  average lipid body area per neutrophil cell of a leukocyte sample: approximately 0.65 μm^2
[1]; untreated group 7.03 (SD 0.83), treated SD 0.24
  average number of lipid bodies per neutrophil cell of a leukocyte sample: approximately 4.09
[2]
  fasting glucose: 110.13 mg/dL
